Assay results taken from patent publication US20120172413A1, “INCREASING LIFESPAN BY MODULATING CRTC EXPRESSION OR LOCALIZATION, AND METHODS OF SCREENING FOR MODULATORS OF SAME” (THE SALK INSTITUTE FOR BIOLOGICAL STUDIES, priority 2009, published 2012).
Entries after “also recorded” stand apart in the source; their conditions may differ. Counter-ions that a name gives are not always drawn.

What was measured:
[1] = system: CRTC-1::RFP localization in C. elegans intestinal cells; test: CRTC-1::RFP localization during tricaine time course (microscopy); type: in vivo
Procedure: Except for tricaine time course experiments, worms were in 5 μl anesthetic mounted on 2% agarose pads on glass slides under glass cover slips. All photos were taken using a Zeiss Axiovert microscope & Axiocam. Pictures in FIGS. 2a and 3b used apotome optical sectioning. For the tricaine experiments (FIG. 4a&b), L4 worms were placed in wells of a 96 well plate in 100 μl of tetramisole/M9 with or without tricaine (2 mg/ml). Pictures were taken during time course through the 96 well plate.

[2] = system: CRTC-1::RFP localization in intestinal cells; test: Kinase redundancy assay: CRTC-1::RFP localization after tricaine treatment and removal; type: in vivo, C. elegans
Procedure: Worms were subjected to RNAi for AMPK family kinases from hatch. 24 hours post L4 worms were then picked into M9 with tricaine (2 mg/ml) in wells of a […]. Worms were left on a rotational shaker at 20° C. for 2 hours. Using a glass pipette (Mair, W. A simple yet effective method to manipulate C. elegans in liquid. Worm Breeders Gazette 18 (2009)), worms were then placed onto NG plates seeded with E. coli (0P50). When tricaine solution had evaporated (approx 20 min), worms were picked onto fresh OP50 plates, 5 worms per plate. […] Time=0 was when moved to fresh OP50 plates.

[3] = aak-1 (tm1944), aak-2 (ok524) mutants (AMPK null)

| Compound | effect on CRTC-1 localization ([1]; 0.1 mg/ml in M9 as anesthetic, pilot experiments) | re-location of CRTC-1::RFP to the cytosol upon drug removal [2, 3] | tricaine-induced nuclear localization of CRTC-1::RFP [2, 3] | re-location of CRTC-1::RFP to the cytosol upon drug removal ([2]; aak-1 (tm1944), aak-2 (ok524) mutants (AMPK null), listed as Tricaine) | reversibility of CRTC-1 nuclear localization after drug removal ([2]; wild type background) | CRTC-1::RFP localization ([1]; CRTC-1::RFP with calcineurin (TAX-6) binding site mutated, 60 minutes of tricaine treatment) | CRTC-1::RFP localization ([1]; tax-6 (ok2065) deletion mutant, up to 2 hours of tricaine treatment) | CRTC-1::RFP localization ([1]; wild type background, intestinal cells, tricaine (2 mg/ml) in M9) | time to CRTC-1::RFP nuclear localization ([1]; wild type background, tricaine added in M9) |
| --- | --- | --- | --- | --- | --- | --- | --- | --- | --- |
| c1ccc(C2CN3CCSC3=N2)cc1 (stereo not drawn) [tetramisole hydrochloride] | no effect | – | – | – | – | – | – | – | – |
| CCOC(=O)c1cccc(N)c1 [tricaine] | – | relocated to the cytoplasm | expedited | delayed | reversible within two hours | did not shuttle into the nucleus; also recorded: no effect | invariably cytosolic; also recorded: does not respond | rapid nuclear localization | ≤ 30 min |
